For test [1], the target named is T1, APOL1 G2 (Homo sapiens, UniProt O14791, DEL388-389).
T1 construct: expressed in transfected cells; host or cells: HEK293 T-REx clonal lines: HEK T-REx/GCaMP6f/APOL1 G2 K6.3 in A1, HEK293/T-REx APOL1 G2/clone #2 in A2
T1 sequence (O14791 with tags, fused parts or gaps DEL388-389): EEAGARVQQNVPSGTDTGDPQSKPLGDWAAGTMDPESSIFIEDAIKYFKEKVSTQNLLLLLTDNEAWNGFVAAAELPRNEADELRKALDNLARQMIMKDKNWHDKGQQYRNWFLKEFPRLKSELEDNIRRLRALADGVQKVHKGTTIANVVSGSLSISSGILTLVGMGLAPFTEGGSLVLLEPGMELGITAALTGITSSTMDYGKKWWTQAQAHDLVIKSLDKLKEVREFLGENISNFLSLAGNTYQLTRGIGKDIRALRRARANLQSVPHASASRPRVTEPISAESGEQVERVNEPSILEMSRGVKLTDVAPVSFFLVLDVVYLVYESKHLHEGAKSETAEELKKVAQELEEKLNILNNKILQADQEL
As to the kind of experiment: APOL1 calcium transport inhibition assay (GCaMP6f calcium influx, FLIPR) in HEK T-REx/GCaMP6f/APOL1 G2 K6.3 cells. It counts as cell-based. The settings on record: inhibition of APOL1-mediated calcium influx; geometric mean of at least 2 assay runs, † = single assay run (technical duplicate). The method in brief: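 HEK293 cells stably expressing GCaMP6f, APOL1 G2 induced 6 h with doxycycline (20 ng/mL added), then washed into Ca2+-free Tyrode's buffer pH 7.4. Compounds (8-point dose response) preincubated 10 min at room temperature, then Ca2+ injected to 5 mM final and influx read on FLIPR. AC50 reported as geometric mean of runs.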

Test [2] concerns the target T1, APOL1 G2. The test can be described thus: Rescue of HEK293 cell death caused by overexpression of APOL1 (CellTiter-Glo luminescence), HEK293/T-REx APOL1 G2/clone #2. Format: cell-based. The note with it: reversal of cell death caused by overexpression of APOL1; geometric mean of at least 2 assay runs, † = single assay run (technical duplicate). In a few lines:
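Rescue EC50s come from four-parameter logistic fits, geometric mean of at least 2 runs on separate days, each in duplicate. Readout: CellTiter-Glo luminescence after 17 h at 37 °C of 5,000 HEK293/T-REx APOL1 G2 clone #2 cells/well, with 6 ng/mL doxycycline to induce APOL1 and 3-fold serial compound dilutions in 0.5% DMSO.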
(Cellular ATP, detected with luciferase, serves as a proxy for viable cell number.)

The structures appear in SMILES notation. Where only a bound is given, the exact number is not on record here.

Take `CS(=O)(=O)c1ccc(OC[C@@H](O)CN2CCCCC2Cc2cccc(Cl)c2)cc1` (single isomer, unassigned) [Compound 63, (2S)-1-((S) or (R)-2-(3-chlorobenzyl)piperidin-1-yl)-3-(4-(methylsulfonyl)phenoxy)propan-2-ol]: the AC50 (in general, the midpoint of the concentration-response curve, whichever way the signal moves) in test [1] is 0.637 µM. Also, in test [2], the EC50 (in general, the concentration that produces a half-maximal response) was determined as 3.96 µM.

As to `CN(c1ccc(OC[C@@H](O)CN(CCc2cccc(Cl)c2)CC2CC2)cc1)S(C)(=O)=O` [Compound 59, (S)—N-(4-(3-((3-chlorophenethyl)(cyclopropylmethyl)amino)-2-hydroxypropoxy)phenyl)-N-methylmethanesulfonamide], the AC50 in test [1] is 0.245 µM. In addition, the EC50 in test [2] turned out to be 1.06 µM.

In the case of `CC(CN1C[C@@H](COc2ccc(S(C)(=O)=O)cc2)[C@H](C)C1)c1cc(Cl)cc(C#N)c1` (single isomer, unassigned) [Compound 147, 3-chloro-5-[(2R or 2S)-1-[(3S, 4S)-3-[(4-meth-anesulfonylphen-oxy)methyl]-4-methylpyrroli-din-1-yl]propan-2-yl]benzonitrile], the AC50 in test [1] was found to be 1.11 µM. Besides, in test [2], the EC50 worked out at 0.618 µM.

With `C[C@@H]1CN(CCc2cccc(C#N)c2)C[C@H]1COc1ccc(S(=O)(=O)CCCS(C)(=O)=O)cc1` [Compound 168, 3-{2-[(3S,4S)-3-{[4-(3-methanesulfonylpro-panesulfonyl)phe-noxy]methyl}-4-methylpyrrolidin-1-yl]ethyl}benzonitrile], the concentration at half-maximal activity (AC50) in test [1] came to 0.179 µM. Further, the EC50 in test [2] amounted to 0.126 µM.

As to `C[C@@H]1C[C@H](COc2ccc(S(C)(=O)=O)cc2)CN1CCc1cc(C#N)cc(C#N)c1` [Compound 132], in test [1], the concentration at half-maximal activity (AC50) was 0.51 µM. For the same compound, the EC50 in test [2] was 0.0437 µM.

Turning to `C[C@@H]1C[C@H](COc2ccc(S(=O)(=O)CCCS(C)(=O)=O)cc2)CN1CCc1cc(Cl)cc(C#N)c1` [Compound 164, 3-chloro-5-{2-[(2R,4S)-4-{[4-(3-methanesulfonylpro-panesulfonyl)phe-noxy]methyl}-2-methylpyrrolidin-1-yl]ethyl}benzonitrile], in test [1], the AC50 was 0.364 µM. Also, the EC50 in test [2] is 0.0341 µM.

Consider `COc1ccccc1CCNC[C@H](O)COc1ccc(N(C)S(C)(=O)=O)cc1` [Compound 98, (S)-N-(4-(2-hydroxy-3-((2-methoxyphenethyl)amino)propoxy)phe-nyl)-N-methylmethanesulfon-amide], for which the half-maximal activity concentration (AC50) in test [1] was 3.92 µM. Also, the EC50 in test [2] was greater than 20 µM.

Regarding `C[C@@H]1C[C@H](COc2ccc(S(C)(=O)=O)cc2)CN1CC(O)c1cccc(C#N)c1` (single isomer, unassigned) [Compound 117, 3-[(1S or 1R)-1-hydroxy-2-[(2R,4S)-4-[(4-methanesulfonylphenoxy)methyl]-2-methylpyrrolidin-1-yl]ethyl] benzonitrile], the AC50 in test [1] amounted to 1.08 µM. Also, in test [2], the half-maximal effective concentration (EC50) was 1.24 µM.

With `CC(C)(Cc1cccc(Cl)c1)NC[C@@H](O)COc1ccc(S(C)(=O)=O)cc1` [Compound 97, (R)-1-((1-(3-chlorophenyl)-2-methylpropan-2-yl)amino)-3-(4-(methylsulfonyl)phe-noxy)propan-2-ol], the AC50 in test [1] came out at 0.314 µM. Further, the EC50 in test [2] is 0.46 µM.

As for `C[C@@H]1CN(CC(O)c2cccc(C#N)c2)C[C@H]1COc1ccc(S(C)(=O)=O)cc1` (single isomer, unassigned) [Compound 128, 3-[(1R or 1S)-1-hydroxy-2-[(35,4S)-3-[(4-methanesulfonylphenoxy)methyl]-4-methylpyrrolidin-1-ylethyl]benzonitrile], in test [1], the AC50 was 0.349 µM. Also, the half-maximal effective concentration (EC50) in test [2] was found to be 0.366 µM.

For `CS(=O)(=O)c1ccc(CCC2CCCN(CCc3cccc(Cl)c3)C2)cc1` (stereo not drawn) [Compound 39, 1-(3-chlorophenethyl)-3-(4-(methylsulfonyl)phenethyl)piperidine], the AC50 in test [1] worked out at 0.249 µM. Also, the EC50 in test [2] came to 0.904 µM.

For the compound `COCCS(=O)(=O)c1ccc(OC[C@@H]2CN(CCc3cccc(Cl)c3)C[C@H]2C)cc1` (single isomer, unassigned) [Compound 111, (3S,4S or 3R,4R)-1-[2-(3-chlorophenyl)ethyl]-3-{[4-(2-methoxyethane-sulfonyl)phenoxy]methyl}-4-methylpyrrolidine], in test [1], the AC50 is 0.494 µM. In test [2], the EC50 came out at 1.88 µM.

For the compound `CC1CC(COc2ccc(S(C)(=O)=O)cc2)CN1CCc1cc(Cl)cc(C#N)c1` (single isomer, unassigned) [Compound 204, 3-chloro-5-(2-((2R,4S or 2S,4R or 2S,4S or 2R.4R)-2-methyl-4-((4-(methylsulfonyl)phenoxy)methyl)pyrrolidin-1-yl)ethyl)benzonitrile], the AC50 in test [1] is 0.456 µM. Also, the EC50 in test [2] turned out to be 0.0423 µM.

Turning to `CN(c1ccc(OCC(C)(O)CNCCc2cccc(Cl)c2)cc1)S(C)(=O)=O` (single isomer, unassigned) [Compound 103, (R) or (S)-N-(4-(3-((3-chlorophenethyl)a-mino)-2-hydroxy-2-methylpropxy)phe-nyl)-N-methylmethanesulfon-amide], the AC50 in test [1] amounted to 10.9 µM. In test [2], the EC50 is greater than 30 µM.

As to `CS(=O)(=O)c1ccc(OCC2(O)CCCN(CCc3cccc(Cl)c3)C2)cc1` (single isomer, unassigned) [Compound 6, (S) or (R) -1-(3-chlorophenethyl)-3-((4-(methylsulfonyl)phenoxy)methyl) piperidin-3-ol], the concentration at half-maximal activity (AC50) in test [1] worked out at 0.942 µM. In addition, in test [2], the EC50 turned out to be 0.495 µM.

With `C[C@H](CNCCc1cccc(Cl)c1)COc1ccc(N(C)S(C)(=O)=O)cc1` [Compound 61, (R)—N-(4-(3-((3-chlorophenethyl)amino)-2-methylpropoxy)phenyl)-N-methylmethanesulfonamide], the AC50 in test [1] is 0.376 µM. In test [2], the EC50 amounted to 0.933 µM.

Consider `CC1CC(COc2ccc(S(C)(=O)=O)cc2)CN1CCc1cccc(Cl)c1` (single isomer, unassigned) [Compound 53, rac-trans or cis-1-(3-chlorophenethyl)-2-methyl-4-((4-(methylsulfonyl)phenoxy)methyl)pyrrolidine], for which the AC50 in test [1] is 0.856 µM. Moreover, the EC50 in test [2] is 1.12 µM.

As for `CC1CC(COc2ccc(S(C)(=O)=O)cc2)CN1CCc1cccc(Cl)c1` (single isomer, unassigned) [Compound 57, (2S,4R) or (2S,4S) or (2R,4S) or (2R,4R)-1-(3-chlorophenethyl)-2-methyl-4-((4-(methylsulfonyl)phenoxy)methyl)pyrrolidine], the half-maximal activity concentration (AC50) in test [1] was less than 5 µM. Besides, the EC50 in test [2] was found to be 1.68 µM.

For `COCCS(=O)(=O)c1ccc(OC[C@H]2CN(CCc3cccc(Cl)c3)C[C@@H]2C)cc1` (racemic) [Compound 109, rac-trans-1-[2-(3-chlorophenyl)ethyl]-3-{[4-(2-methoxyethane-sulfonyl)phenoxy]methyl}-4-methylpyrrolidine], the AC50 in test [1] is less than 0.105 µM. For the same compound, the EC50 in test [2] came out at 0.5 µM.

As for `C[C@@H]1CN(CCc2cccc(Cl)c2)C[C@H]1COc1ccc(S(C)(=O)=O)cc1` (single isomer, unassigned) [Compound 155, (35,4S or 3R, 4R)-1-[2-(3-chlorophenyl)-ethyl]-3-[(4-methanesulfon-ylphenoxy)meth-yl]-4-methyl-pyrrolidine], the AC50 in test [1] amounted to 1.98 µM. In addition, the EC50 in test [2] is 2.49 µM.

On to `CN=S(C)(=O)c1ccc(OC[C@H]2C[C@@H](C)N(CCc3cccc(C#N)c3)C2)cc1` (single isomer, unassigned) [Compound 159, 3-{2-[(2R,4S)-2-methyl-4-({4-[(S or R)methyl(methyli-mino)oxo-λ^6-sulfanyl]phenoxy}methyl)pyrrolidin-1-yl]ethyl}benzonitrile], for which, in test [1], the AC50 is 0.358 µM. In addition, in test [2], the EC50 worked out at 0.0249 µM.

Take `C[C@@H]1C[C@H](COc2ccc(S(C)(=O)=O)cc2)CN1CC(O)c1cc(Cl)cc(C#N)c1` (single isomer, unassigned) [Compound 114, 3-chloro-5-[(1S or 1R)-1-hydroxy-2-[(2R,4S)-4-[(4-methanesulfonylphenoxy)methyl]-2-methylpyrrolidin-1-yl]ethyl] benzonitrile]: the AC50 in test [1] amounted to 0.709 µM. In addition, the 50% effective concentration (EC50) in test [2] is 0.439 µM.

For `CC1(C)CC(COc2ccc(S(C)(=O)=O)cc2)CN1CCc1cccc(Cl)c1` (single isomer, unassigned) [Compound 44, (R) or (S)-1-(3-chlorophenethyl)-2,2-dimethyl-4-((4-(methylsulfonyl)phenoxy)methyl)pyrrolidine], in test [1], the half-maximal activity concentration (AC50) worked out at 2.22 µM. Further, in test [2], the EC50 amounted to 2.43 µM.

`C[C@@H]1C[C@H](COc2ccc(S(=O)(=O)C3CNC3)cc2)CN1CCc1cccc(C#N)c1` [Compound 156, 3-{2-[(2R,4S)-4-{[4-(azetidine-3-sulfonyl)phenoxy]methyl}-2-methylpyrrolidin-1-yl]ethyl}benzonitrile]: the AC50 in test [1] came to 0.311 µM. Also, in test [2], the EC50 turned out to be 0.178 µM.
